From US20260372303A1, “5-Fluoro-4-Imino-3-Methyl-1-Tosyl-3, 4-Dihydropyrimidin-2(1H) -One for Fungicide-Resistant Fungus” (priority 2022, published 2026)

Legend:
Type in all cases: in vivo
[1] = tested on: Zymoseptoria tritici strain Zt 61; assay: In planta preventive efficacy on wheat cv. Alixan against Zymoseptoria tritici strain Zt 61; parameters: fungicide efficacy: concentration or dose not given beside the values; settings: for Disease Severity Intensity: % of length of 2nd leaf blade, preventive 24 h; for AUDPC: control 1194.9
Description: (§1) A series of experiments were conducted to evaluate the efficacy of flumetylsulforim (ADF-16) for treating different strains of Zymoseptoria tritici in comparison with commercially available fungicides. Table 1 describes the Z. tritici strains used in this study and Table 2 describes the fungicides used in this study.
(§2) Winter wheat plants cv. Alixan (Limagrain) at the BBCH 12 growth stage were treated preventively with sterile distilled water (control), ADF-16, penthiopyrad, metconazole or tebuconazole at the rates described in Table 2 with a hand sprayer at 2 bars.
(§3) After treatment, wheat plants were left to dry at room temperature for 1 hour and then placed in a climatic chamber: temperature of 24 °C day/18 °C night-photoperiod of 16 h light/8 h dark and a relative humidity of 65%.
(§4) Untreated or treated whole wheat plants were inoculated 24-hours post-treatment with a calibrated pycnospore suspension of Z. tritici strains Zt StA, Zt 61, Zt 99, Zt 20, Zt 19-52, and Zt 38-02. Three replicates (pots) of 6 wheat plants each were used for each condition tested.
(§5) After inoculation, pots were transferred in a climatic chamber: temperature of 20 °C day/17 °C night—photoperiod of 16 h light/8 h dark and controlled relative humidity.
(§6) Disease assessments were carried out at 15 days post inoculation (dpi), 21 dpi and 28 dpi by measuring the length of the necrosis on the second leaf blade. The intensity of infection was then determined as a percentage of the total length of 2nd leaf blade.
(§7) The fungicide efficacies were determined from the Area Under the Disease Progress Curve (AUDPC) values and expressed as a percentage of the untreated control.
(§8) The AUDPC is a quantitative measure of disease intensity over time. The most commonly used method for estimating the AUDPC, the trapezoidal method, is performed by multiplying the average disease intensity between each pair of adjacent timepoints by the corresponding time interval and this for each time interval. The AUDPC is determined with the following formula by adding all of the trapezoids:
(§9) [formula] • yi=disease severity at the ith observation • ti=time (days) at the ith observation • N=total number of observations

[2] = tested on: Zymoseptoria tritici strain Zt 99; assay: In planta preventive efficacy on wheat cv. Alixan against Zymoseptoria tritici strain Zt 99; settings: for Disease Severity Intensity: % of length of 2nd leaf blade, preventive 24 h; for AUDPC: control 1352.9
Description: as §1, §2, §3, §4, §5, §6, §7, §8, §9

[3] = tested on: Zymoseptoria tritici strain Zt StA; assay: In planta preventive efficacy on wheat cv. Alixan against Zymoseptoria tritici strain Zt StA (control strain, sensitive); settings: for Disease Severity Intensity: % of length of 2nd leaf blade, preventive 24 h; for AUDPC: control 781.6
Description: as §1, §2, §3, §4, §5, §6, §7, §8, §9

[4] = tested on: Zymoseptoria tritici strain Zt 38-02; assay: In planta preventive efficacy on wheat cv. Alixan against Zymoseptoria tritici strain Zt 38-02; settings: for Disease Severity Intensity: % of length of 2nd leaf blade, preventive 24 h; for AUDPC: control 1261.4
Description: as §1, §2, §3, §4, §5, §6, §7, §8, §9

[5] = tested on: Zymoseptoria tritici strain Zt 20; assay: In planta preventive efficacy on wheat cv. Alixan against Zymoseptoria tritici strain Zt 20; settings: % of length of 2nd leaf blade, preventive 24 h
Description: as §1, §2, §3, §4, §5, §6, §7, §8, §9

[6] = tested on: Zymoseptoria tritici strain Zt 19-52; assay: In planta preventive efficacy on wheat cv. Alixan against Zymoseptoria tritici strain Zt 19-52; settings: % of length of 2nd leaf blade, preventive 24 h
Description: as §1, §2, §3, §4, §5, §6, §7, §8, §9

[7] = 15 dpi, rate N (g a.i./ha): ADF-16 100, penthiopyrad 200, metconazole 90, tebuconazole 250, control also no disease
[8] = 15 dpi, rate N/2.5 (g a.i./ha): ADF-16 40, penthiopyrad 80, metconazole 36, tebuconazole 100, control also no disease
[9] = rate N (g a.i./ha): ADF-16 100, penthiopyrad 200, metconazole 90, tebuconazole 250
[10] = rate N/2.5 (g a.i./ha): ADF-16 40, penthiopyrad 80, metconazole 36, tebuconazole 100

## CC(C)CC(C)c1sccc1NC(=O)c1cn(C)nc1C(F)(F)F (stereo not drawn) [Penthiopyrad]
[1]; [7]
  Disease Severity Intensity: No disease
[1]; [8]
  Disease Severity Intensity: No disease
[1]; 21 dpi, rate N (g a.i./ha): ADF-16 100, penthiopyrad 200, metconazole 90, tebuconazole 250, control 63.3
  Disease Severity Intensity: 1.2 +/− 0.5d %
[1]; 21 dpi, rate N/2.5 (g a.i./ha): ADF-16 40, penthiopyrad 80, metconazole 36, tebuconazole 100, control 63.3
  Disease Severity Intensity: 19.9 +/− 3.8b %
[1]; 28 dpi, rate N (g a.i./ha): ADF-16 100, penthiopyrad 200, metconazole 90, tebuconazole 250, control 88.1
  Disease Severity Intensity: 18.2 +/− 2.8e %
[1]; 28 dpi, rate N/2.5 (g a.i./ha): ADF-16 40, penthiopyrad 80, metconazole 36, tebuconazole 100, control 88.1
  Disease Severity Intensity: 74.3 +/− 2.3b %
[1]; higher application rates (N)
  fungicide efficacy: ≥ 85%
[1]; lower application rates (N/2.5)
  fungicide efficacy: ≤ 70%
[1]; [9]
  Efficacy (from AUDPC, percentage of the untreated control): 93.3%
  AUDPC: 80.2 ± 9.8 days
[1]; [10]
  Efficacy (from AUDPC, percentage of the untreated control): 55.0%
  AUDPC: 537.9 +/− 53.2b
[2]; 15 dpi, rate N (g a.i./ha): ADF-16 100, penthiopyrad 200, metconazole 90, tebuconazole 250, control 47.9
  Disease Severity Intensity: 12.9 +/− 2.1c %
[2]; 15 dpi, rate N/2.5 (g a.i./ha): ADF-16 40, penthiopyrad 80, metconazole 36, tebuconazole 100, control 47.9
  Disease Severity Intensity: 27.5 +/− 2.2b %
[2]; 21 dpi, rate N (g a.i./ha): ADF-16 100, penthiopyrad 200, metconazole 90, tebuconazole 250, control 81.0
  Disease Severity Intensity: 70.2 +/− 2.8b %
[2]; 21 dpi, rate N/2.5 (g a.i./ha): ADF-16 40, penthiopyrad 80, metconazole 36, tebuconazole 100, control 81.0
  Disease Severity Intensity: 72.0 +/− 3.6b %
[2]; 28 dpi, rate N (g a.i./ha): ADF-16 100, penthiopyrad 200, metconazole 90, tebuconazole 250, control 92.2
  Disease Severity Intensity: 90.6 +/− 1.7ab %
[2]; 28 dpi, rate N/2.5 (g a.i./ha): ADF-16 40, penthiopyrad 80, metconazole 36, tebuconazole 100, control 92.2
  Disease Severity Intensity: 90.9 +/− 1.6ab %
[2]; [9]
  Efficacy (from AUDPC, percentage of the untreated control): 32.9%
  AUDPC: 908.4 +/− 11.3c
[2]; [10]
  Efficacy (from AUDPC, percentage of the untreated control): 20.4%
  AUDPC: 1076.9 +/− 17.9b
[3]; [7]
  Disease Severity Intensity: No disease
[3]; [8]
  Disease Severity Intensity: No disease
[3]; 21 dpi, rate N (g a.i./ha): ADF-16 100, penthiopyrad 200, metconazole 90, tebuconazole 250, control 36.5
  Disease Severity Intensity: 0.0 +/− 0.0b %
[3]; 21 dpi, rate N/2.5 (g a.i./ha): ADF-16 40, penthiopyrad 80, metconazole 36, tebuconazole 100, control 36.5
  Disease Severity Intensity: 0.0 +/− 0.0b %
[3]; 28 dpi, rate N (g a.i./ha): ADF-16 100, penthiopyrad 200, metconazole 90, tebuconazole 250, control 77.4
  Disease Severity Intensity: 0.0 +/− 0.0b %
[3]; 28 dpi, rate N/2.5 (g a.i./ha): ADF-16 40, penthiopyrad 80, metconazole 36, tebuconazole 100, control 77.4
  Disease Severity Intensity: 0.0 +/− 0.0b %
[3]; [9]
  Efficacy (from AUDPC, percentage of the untreated control): 100%
  AUDPC: 0.0 +/− 0.0b
[3]; [10]
  Efficacy (from AUDPC, percentage of the untreated control): 100%
  AUDPC: 0.0 +/− 0.0b
[4]; 15 dpi, rate N (g a.i./ha): ADF-16 100, penthiopyrad 200, metconazole 90, tebuconazole 250, control 36.0
  Disease Severity Intensity: 0.0 +/− 0.0b %
[4]; 15 dpi, rate N/2.5 (g a.i./ha): ADF-16 40, penthiopyrad 80, metconazole 36, tebuconazole 100, control 36.0
  Disease Severity Intensity: 0.0 +/− 0.0b %
[4]; 21 dpi, rate N (g a.i./ha): ADF-16 100, penthiopyrad 200, metconazole 90, tebuconazole 250, control 84.3
  Disease Severity Intensity: 10.9 +/− 2.1e %
[4]; 21 dpi, rate N/2.5 (g a.i./ha): ADF-16 40, penthiopyrad 80, metconazole 36, tebuconazole 100, control 84.3
  Disease Severity Intensity: 70.7 +/− 3.3b %
[4]; 28 dpi, rate N (g a.i./ha): ADF-16 100, penthiopyrad 200, metconazole 90, tebuconazole 250, control 95.7
  Disease Severity Intensity: 54.9 +/− 3.2d %
[4]; 28 dpi, rate N/2.5 (g a.i./ha): ADF-16 40, penthiopyrad 80, metconazole 36, tebuconazole 100, control 95.7
  Disease Severity Intensity: 86.5 +/− 2.1c %
[4]; [9]
  Efficacy (from AUDPC, percentage of the untreated control): 79.2%
  AUDPC: 262.9 ± 12.5 days
[4]; [10]
  Efficacy (from AUDPC, percentage of the untreated control): 39.5%
  AUDPC: 763.1 +/− 4.4b
[5]; [7]
  Disease Severity Intensity: No disease
[5]; [8]
  Disease Severity Intensity: No disease
[5]; 21 dpi, rate N (g a.i./ha): ADF-16 100, penthiopyrad 200, metconazole 90, tebuconazole 250, control 77.2
  Disease Severity Intensity: 0.3 +/− 0.3e %
[5]; 21 dpi, rate N/2.5 (g a.i./ha): ADF-16 40, penthiopyrad 80, metconazole 36, tebuconazole 100, control 77.2
  Disease Severity Intensity: 0.0 +/− 0.0e %
[5]; 28 dpi, rate N (g a.i./ha): ADF-16 100, penthiopyrad 200, metconazole 90, tebuconazole 250, control 95.5
  Disease Severity Intensity: 1.2 +/− 0.6g %
[5]; 28 dpi, rate N/2.5 (g a.i./ha): ADF-16 40, penthiopyrad 80, metconazole 36, tebuconazole 100, control 95.5
  Disease Severity Intensity: 2.0 +/− 1.4g %
[6]; 15 dpi, rate N (g a.i./ha): ADF-16 100, penthiopyrad 200, metconazole 90, tebuconazole 250, control 22.0
  Disease Severity Intensity: 0.0 +/− 0.0b %
[6]; 15 dpi, rate N/2.5 (g a.i./ha): ADF-16 40, penthiopyrad 80, metconazole 36, tebuconazole 100, control 22.0
  Disease Severity Intensity: 0.0 +/− 0.0b %
[6]; 21 dpi, rate N (g a.i./ha): ADF-16 100, penthiopyrad 200, metconazole 90, tebuconazole 250, control 81.7
  Disease Severity Intensity: 0.0 +/− 0.0c %
[6]; 21 dpi, rate N/2.5 (g a.i./ha): ADF-16 40, penthiopyrad 80, metconazole 36, tebuconazole 100, control 81.7
  Disease Severity Intensity: 0.0 +/− 0.0c %
[6]; 28 dpi, rate N (g a.i./ha): ADF-16 100, penthiopyrad 200, metconazole 90, tebuconazole 250, control 91.0
  Disease Severity Intensity: 0.0 +/− 0.0f %
[6]; 28 dpi, rate N/2.5 (g a.i./ha): ADF-16 40, penthiopyrad 80, metconazole 36, tebuconazole 100, control 91.0
  Disease Severity Intensity: 2.0 +/− 0.8e %
